One assay relates to HIV. The conditions noted are these: cited from earlier work.
The subject of the next assay is S. aureus ATCC 25923. As to the kind of experiment: In vitro binding of 99mTc-labelled agents to viable S. aureus bacteria. The conditions noted are these: 10 μg concentration, time not stated. Further details: species or system Staphylococcus aureus.
A further assay deals with bacteria. The note with it: cited from earlier work.

Bounds are passed on as bounds.

Description for S. aureus ATCC 25923: Overnight cultures of bacteria were prepared in brain heart infusion broth (BHI, Oxoid) in a shaking water bath at 37° C. Aliquots of suspensions containing viable stationary phase bacteria were flash frozen in liquid nitrogen and stored at −70° C. Just before use, an aliquot of this suspension was rapidly thawed in a water bath at 37° C. and diluted in sodium phosphate buffer of pH 7.2 (Na-PB).
0.8 ml of 50% (v/v) of 0.01 M acetic acid in Na-PB containing approximately 1×10^8 viable bacteria was added. The mixture was incubated for 1 h at 4° C. and then centrifuged for 5 min at 2000 rev/min. The supernatant was removed and the bacterial pellet was gently resuspended in 1 ml of ice cooled Na-PB and recentrifuged. The supernatant was removed and the radioactivity in the bacterial pellet was determined by a gamma-counter. The supernatants were also counted. The radioactivity related to bacteria was expressed in percent of the added ^99mTc activity bound to viable bacteria in regard to total ^99mTc activity (Table 1).

For `CCCCCCCCNCCC[C@@H](C)[C@H]1CC[C@H]2[C@@H]3[C@H](OCCCN)C[C@@H]4C[C@H](OCCCN)CC[C@]4(C)[C@H]3C[C@H](OCCCN)[C@]12C` [CSA-13], the “HIV infection of primary human CD4+ T cells” value with HIV is on record as “inhibit HIV infection”.

Regarding `O=C([O-])CN(CCN(CC(=O)[O-])CC(=O)[O-])CCN(CC(=O)[O-])CC(=O)[O-].[99Tc+4]` [Compound 99mTc-DTPA], in the assay with S. aureus ATCC 25923, the “In vitro binding to bacteria” value was about 10%. Also, in the assay on bacteria, the “in-vitro binding in published reports” value is listed as over 8%.

The values are drawn from patent US9943614B2, “Cationic steroid antimicrobial diagnostic, detection, screening and imaging methods” (BRIGHAM YOUNG UNIVERSITY, priority 2008, dated 2018).
